Reference: PubChem BioAssay AID256 (DTP/NCI, 2004)
Where “and” joins values, the source holds several entries; their conditions need not be identical. Equal values may be shown once. Inconclusive results and toxic doses are left out. How the source made its calls: active means survival T/C of 150% or more; inactive means T/C below 125% in these data.

Test system: CD2F1 mice, L1210 leukemia ip, survival T/C
Experiment: NCI In Vivo Anticancer Drug Screen. Data for tumor model L1210 Leukemia (intraperitoneal) in CD2F1 (CDF1) mice
Conditions: higher = longer survival
Method in brief: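 Each value reflects a quotient of treated over vehicle control outcomes in mice with a transplanted tumor.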

[1] = endpoint: mean survival time, dose: 12.5 mg/kg/injection, schedule: Q04DX003 (ip), vehicle: saline with Tween-80
[2] = endpoint: mean survival time, dose: 25.0 mg/kg/injection, schedule: Q04DX003 (ip), vehicle: saline with Tween-80
[3] = endpoint: mean survival time, dose: 200.0 mg/kg/injection, schedule: Q04DX003 (ip), vehicle: saline with Tween-80
[4] = endpoint: mean survival time, dose: 400.0 mg/kg/injection, schedule: Q04DX003 (ip), vehicle: saline with Tween-80
[5] = endpoint: mean survival time, dose: 100.0 mg/kg/injection, schedule: Q04DX003 (ip), vehicle: saline with Tween-80
[6] = endpoint: mean survival time, dose: 100.0 mg/kg/injection, schedule: Q01DX001 (ip), vehicle: saline with Tween-80
[7] = endpoint: mean survival time, dose: 100.0 mg/kg/injection, schedule: Q01DX009 (ip), vehicle: saline with Tween-80
[8] = endpoint: mean survival time, dose: 100.0 mg/kg/injection, schedule: Q04DX002 (ip), vehicle: saline with Tween-80
[9] = endpoint: mean survival time, dose: 200.0 mg/kg/injection, schedule: Q01DX001 (ip), vehicle: saline with Tween-80
[10] = endpoint: mean survival time, dose: 200.0 mg/kg/injection, schedule: Q01DX009 (ip), vehicle: saline with Tween-80
[11] = endpoint: mean survival time, dose: 200.0 mg/kg/injection, schedule: Q04DX002 (ip), vehicle: saline with Tween-80
[12] = endpoint: mean survival time, dose: 400.0 mg/kg/injection, schedule: Q01DX001 (ip), vehicle: saline with Tween-80
[13] = endpoint: mean survival time, dose: 400.0 mg/kg/injection, schedule: Q01DX009 (ip), vehicle: saline with Tween-80
[14] = endpoint: mean survival time, dose: 400.0 mg/kg/injection, schedule: Q04DX002 (ip), vehicle: saline with Tween-80
[15] = endpoint: mean survival time, dose: 100.0 mg/kg/injection, schedule: Q01DX001 (ip), vehicle: saline
[16] = endpoint: mean survival time, dose: 200.0 mg/kg/injection, schedule: Q01DX001 (ip), vehicle: saline
[17] = endpoint: mean survival time, dose: 400.0 mg/kg/injection, schedule: Q01DX001 (ip), vehicle: saline

Measured: T/C

CC(C)(C)N[P+](Cc1ccccc1)(NC(C)(C)C)c1ccccc1
inactive: [1] 90 % of control | [2] 90 % of control

[Cl][Pt+2][Cl].[NH-]CC(O)c1ccc2oc3ccccc3c2c1.[NH-]CC(O)c1ccc2oc3ccccc3c2c1 (stereo not drawn)
inactive: endpoint: median survival time, dose: 10.0 mg/kg/injection, schedule: Q04DX003 (ip), vehicle: saline 104 % of control | endpoint: median survival time, dose: 20.0 mg/kg/injection, schedule: Q04DX003 (ip), vehicle: saline 108 % of control | endpoint: median survival time, dose: 40.0 mg/kg/injection, schedule: Q04DX003 (ip), vehicle: saline 104 % of control | endpoint: median survival time, dose: 80.0 mg/kg/injection, schedule: Q04DX003 (ip), vehicle: saline with Tween-80 109 % of control | endpoint: median survival time, dose: 80.0 mg/kg/injection, schedule: Q04DX003 (ip), vehicle: saline 108 % of control

O=c1[nH]c2c(ncn2C2OC3COP(=O)(O)OC3C2O)c2nccn12 (stereo not drawn)
inactive: endpoint: mean survival time, dose: 12.5 mg/kg/injection, schedule: Q01DX005 (ip), vehicle: distilled water + Tween-80 97 % of control | endpoint: mean survival time, dose: 25.0 mg/kg/injection, schedule: Q01DX005 (ip), vehicle: distilled water + Tween-80 97 % of control | endpoint: mean survival time, dose: 50.0 mg/kg/injection, schedule: Q01DX005 (ip), vehicle: distilled water + Tween-80 97 % of control | endpoint: mean survival time, dose: 100.0 mg/kg/injection, schedule: Q01DX005 (ip), vehicle: distilled water + Tween-80 100 % of control

CCC(=O)Nc1ccccc1OS(=O)(=O)N(C)C
inactive: [3] 97 % of control | [4] 98 % of control

CC(C)(C)N=C1OC(=O)c2ccccc21
inactive: [5] 101 % of control | [3] 101 % of control | [4] 101 % of control

Cc1cc([N+](=O)[O-])ccc1NC(=S)NC(=O)COc1ccccc1
inactive: [6] 95 % of control | [7] 93 % of control and 102 % of control | [8] 95 % of control | [5] 98 % of control | [9] 89 % of control | [10] 93 % of control | [11] 91 % of control | [3] 97 % of control | [12] 87 % of control | [13] 92 % of control | [4] 93 % of control

Nc1cc(OCC(=O)O)c(Cl)cc1Cl
inactive: endpoint: mean survival time, dose: 50.0 mg/kg/injection, schedule: Q01DX009 (ip), vehicle: Klucel (hydroxypropylcellulose) (HPC) 96 % of control | endpoint: mean survival time, dose: 100.0 mg/kg/injection, schedule: Q01DX009 (ip), vehicle: Klucel (hydroxypropylcellulose) (HPC) 89 % of control | endpoint: mean survival time, dose: 200.0 mg/kg/injection, schedule: Q01DX009 (ip), vehicle: Klucel (hydroxypropylcellulose) (HPC) 93 % of control

CCCOC(=O)COc1ccc(F)cc1
inactive: [8] 97 % of control | [11] 101 % of control | [14] 97 % of control

C=C(Br)CC1CCCCC1=O (stereo not drawn)
inactive: [6] 94 % of control | endpoint: mean survival time, dose: 100.0 mg/kg/injection, schedule: Q01DX009 (ip), vehicle: saline sonified 98 % of control | [9] 93 % of control | endpoint: mean survival time, dose: 200.0 mg/kg/injection, schedule: Q01DX009 (ip), vehicle: saline sonified 94 % of control | [12] 95 % of control | endpoint: mean survival time, dose: 400.0 mg/kg/injection, schedule: Q01DX009 (ip), vehicle: saline sonified 100 % of control

CS(=O)(=O)OC1CC(n2ccc(=O)[nH]c2=O)OC1COC(c1ccccc1)(c1ccccc1)c1ccccc1 (stereo not drawn)
inactive: endpoint: median survival time, dose: 12.5 mg/kg/injection, schedule: Q01DX005 (ip), vehicle: saline with Tween-80 98 % of control and 103 % of control | endpoint: median survival time, dose: 25.0 mg/kg/injection, schedule: Q01DX005 (ip), vehicle: saline with Tween-80 100 % of control and 96 % of control | endpoint: median survival time, dose: 50.0 mg/kg/injection, schedule: Q01DX005 (ip), vehicle: saline with Tween-80 108 % of control and 94 % of control | endpoint: median survival time, dose: 100.0 mg/kg/injection, schedule: Q01DX005 (ip), vehicle: saline with Tween-80 100 % of control and 94 % of control | endpoint: median survival time, dose: 200.0 mg/kg/injection, schedule: Q01DX005 (ip), vehicle: saline with Tween-80 98 % of control and 101 % of control

CCC[CH2][Sn]([CH2]CCC)([n]1cncn1)[n]1cncn1
inactive: [1] 105 % of control

NC(CC(=O)c1ccccc1)C(=O)O (stereo not drawn)
inactive: [15] 98 % of control | [16] 93 % of control | [17] 90 % of control

Cc1ccc(S(=O)(=O)Nc2ccccc2N(CCN(CCOS(=O)(=O)c2ccc(C)cc2)S(=O)(=O)c2ccc(C)cc2)S(=O)(=O)c2ccc(C)cc2)cc1
inactive: [2] 95 % of control | endpoint: mean survival time, dose: 50.0 mg/kg/injection, schedule: Q04DX003 (ip), vehicle: saline with Tween-80 100 % of control | [5] 91 % of control | [3] 95 % of control

Cc1ccc(/C(C#N)=C/c2ccc3c(c2)OCO3)cc1
inactive: [8] 94 % of control | [11] 97 % of control | [14] 91 % of control

CNC(=O)n1ncnc1N
inactive: endpoint: mean survival time, dose: 12.5 mg/kg/injection, schedule: Q01DX001 (ip), vehicle: carboxymethylcellulose (CMC) 95 % of control | endpoint: mean survival time, dose: 25.0 mg/kg/injection, schedule: Q01DX001 (ip), vehicle: carboxymethylcellulose (CMC) 100 % of control | endpoint: mean survival time, dose: 50.0 mg/kg/injection, schedule: Q01DX001 (ip), vehicle: carboxymethylcellulose (CMC) 95 % of control | endpoint: mean survival time, dose: 100.0 mg/kg/injection, schedule: Q01DX001 (ip), vehicle: carboxymethylcellulose (CMC) 91 % of control | endpoint: mean survival time, dose: 200.0 mg/kg/injection, schedule: Q01DX001 (ip), vehicle: carboxymethylcellulose (CMC) 93 % of control

CCN(CC)C(=S)SCn1ncc2ccc([N+](=O)[O-])cc21
inactive: [15] 95 % of control | [16] 92 % of control | [17] 89 % of control

O=C1CN(Cl)C(=O)CN1Cl
inactive: endpoint: mean survival time, dose: 37.5 mg/kg/injection, schedule: Q04DX002 (ip), vehicle: saline with Tween-80 98 % of control | endpoint: mean survival time, dose: 75.0 mg/kg/injection, schedule: Q04DX002 (ip), vehicle: saline with Tween-80 98 % of control | endpoint: mean survival time, dose: 150.0 mg/kg/injection, schedule: Q04DX002 (ip), vehicle: saline with Tween-80 102 % of control

N#CCOc1cccc([N+](=O)[O-])c1
inactive: [5] 103 % of control | [3] 96 % of control

CC(=O)OCC1OC(OC(C)=O)C(NC(=O)C[NH-])C(OC(C)=O)C1OC(C)=O.CC(=O)OCC1OC(OC(C)=O)C(NC(=O)C[NH-])C(OC(C)=O)C1OC(C)=O.[Cl][Pt+2][Cl] (stereo not drawn)
inactive: endpoint: mean survival time, dose: 12.5 mg/kg/injection, schedule: Q04DX003 (ip), vehicle: saline 96 % of control | endpoint: mean survival time, dose: 25.0 mg/kg/injection, schedule: Q04DX003 (ip), vehicle: saline 98 % of control | endpoint: mean survival time, dose: 50.0 mg/kg/injection, schedule: Q04DX003 (ip), vehicle: saline 98 % of control | endpoint: mean survival time, dose: 100.0 mg/kg/injection, schedule: Q04DX003 (ip), vehicle: saline 106 % of control | endpoint: mean survival time, dose: 200.0 mg/kg/injection, schedule: Q04DX003 (ip), vehicle: saline 98 % of control

Cc1ccc2[nH]c(-c3ccccc3)c(-c3ccccc3)c2c1
inactive: [5] 102 % of control | [3] 94 % of control | [4] 96 % of control

[Cl][Pt+2][Cl].[NH-]c1cc(Cl)c(Cl)cc1[NH-]
inactive: endpoint: mean survival time, dose: 2.5 mg/kg/injection, schedule: Q01DX009 (ip), vehicle: saline with Tween-80 107 % of control | endpoint: mean survival time, dose: 5.0 mg/kg/injection, schedule: Q01DX009 (ip), vehicle: saline with Tween-80 105 % of control | endpoint: mean survival time, dose: 10.0 mg/kg/injection, schedule: Q01DX009 (ip), vehicle: saline with Tween-80 111 % of control | endpoint: mean survival time, dose: 20.0 mg/kg/injection, schedule: Q01DX009 (ip), vehicle: saline with Tween-80 106 % of control and 112 % of control | endpoint: mean survival time, dose: 40.0 mg/kg/injection, schedule: Q01DX009 (ip), vehicle: saline with Tween-80 105 % of control and 112 % of control | endpoint: mean survival time, dose: 80.0 mg/kg/injection, schedule: Q01DX009 (ip), vehicle: saline with Tween-80 110 % of control | endpoint: mean survival time, dose: 160.0 mg/kg/injection, schedule: Q01DX009 (ip), vehicle: saline with Tween-80 104 % of control | endpoint: mean survival time, dose: 320.0 mg/kg/injection, schedule: Q01DX009 (ip), vehicle: saline with Tween-80 107 % of control

COc1ccc(-c2cc3ccccc3c(=O)o2)cc1
inactive: [7] 98 % of control | [10] 98 % of control | [13] 91 % of control

Cc1cccc(C)c1N1C(N)=NC(N)=NC1(C)C
inactive: [15] 101 % of control | [16] 93 % of control | [17] 93 % of control

Nc1ccc(C(=O)Nc2cccc(OCc3nc(N)nc(N)c3-c3ccc(Cl)cc3)c2)cc1
inactive: endpoint: mean survival time, dose: 50.0 mg/kg/injection, schedule: Q01DX001 (ip), vehicle: saline with Tween-80 93 % of control | [6] 93 % of control | [9] 93 % of control
